What was measured:
SMARCA2 [1] = target: T1, SMARCA2 (Homo sapiens, UniProt P51531); assay: HiBiT assay for protein degradation, Hela SMARCA2-HiBiT cells (A series); assay type: cell-based; parameters: Hela cells were genetically modified via CRISPR/Cas9 to fuse HiBiT to the carboxy terminus of SMARCA2; host or cells: HeLa (CRISPR/Cas9 HiBiT knock-in); conditions: Hela SMARCA2-HiBiT cells, 24 hours treatment; for Dmax: read-out: SMARC A2 Hela HiBit Dmax (%); for DC50: read-out: SMARC A2 Hela HiBit DC50;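 on SMARC A2 Hela HiBit Dmax (%): 24 h compound treatment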
Method: Hela cells were genetically modified via CRISPR/Cas9 to fuse HiBiT to the carboxy terminus of SMARCA2 (Promega CS302365) or SMARCA4 (Promega CS3023225). Cells were cultured in DMEM containing 10% FBS and 1% (Vol:Vol) penicillin-streptomycin. […] At the end of experiment, levels of SMARCA2 or SMARCA4 expression were assessed with Nano-Glo® HiBiT Lytic Detection Assay (Promega N3050). IC50 was obtained using the GraphPad Prism data analysis software.

SMARCA2 [2] = target: T1, SMARCA2; assay: HiBit assay in engineered HT1080 CRISPR knock-in cell, 6 hrs (B series), SMARCA2; assay type: cell-based; conditions: 6 hrs incubation
Method: The HiBit assay was performed using engineered HT1080 CRISPR knock-in cell utilizing the Nano-Glo HiBiT Lytic Detection System from Promega, Cat #N3040. Compounds were transferred, 25 nL DMSO or test compounds (final DMSO @ 0.1%) to intermediate plates (Corning3570) using ECHO550. Cells were seeded onto compounds at 2000 cells/25 μL/well and incubated for 6 hrs in a tissue culture incubator at 37° C. and 5% CO2. The LgBiT Protein was diluted at 1:100 and the Nano-Glo® HiBIT Lytic Substrate 1:50 into an appropriate volume of room temperature using the Nano-Glo® HiBiT Lytic Buffer. At the end of compound incubation time, 15 ul of the detection reagent was added to each well (without LgBiT for negative control wells) using the Thermo Scientific multidrop combi. The plate was shaken for 10 mins at RT using Combi. After briefly centrifugation (2000 rpm 1 mins), plate was read on Envision (Ultrasensitive luminescence model).

T1 sequence (P51531 whole entry): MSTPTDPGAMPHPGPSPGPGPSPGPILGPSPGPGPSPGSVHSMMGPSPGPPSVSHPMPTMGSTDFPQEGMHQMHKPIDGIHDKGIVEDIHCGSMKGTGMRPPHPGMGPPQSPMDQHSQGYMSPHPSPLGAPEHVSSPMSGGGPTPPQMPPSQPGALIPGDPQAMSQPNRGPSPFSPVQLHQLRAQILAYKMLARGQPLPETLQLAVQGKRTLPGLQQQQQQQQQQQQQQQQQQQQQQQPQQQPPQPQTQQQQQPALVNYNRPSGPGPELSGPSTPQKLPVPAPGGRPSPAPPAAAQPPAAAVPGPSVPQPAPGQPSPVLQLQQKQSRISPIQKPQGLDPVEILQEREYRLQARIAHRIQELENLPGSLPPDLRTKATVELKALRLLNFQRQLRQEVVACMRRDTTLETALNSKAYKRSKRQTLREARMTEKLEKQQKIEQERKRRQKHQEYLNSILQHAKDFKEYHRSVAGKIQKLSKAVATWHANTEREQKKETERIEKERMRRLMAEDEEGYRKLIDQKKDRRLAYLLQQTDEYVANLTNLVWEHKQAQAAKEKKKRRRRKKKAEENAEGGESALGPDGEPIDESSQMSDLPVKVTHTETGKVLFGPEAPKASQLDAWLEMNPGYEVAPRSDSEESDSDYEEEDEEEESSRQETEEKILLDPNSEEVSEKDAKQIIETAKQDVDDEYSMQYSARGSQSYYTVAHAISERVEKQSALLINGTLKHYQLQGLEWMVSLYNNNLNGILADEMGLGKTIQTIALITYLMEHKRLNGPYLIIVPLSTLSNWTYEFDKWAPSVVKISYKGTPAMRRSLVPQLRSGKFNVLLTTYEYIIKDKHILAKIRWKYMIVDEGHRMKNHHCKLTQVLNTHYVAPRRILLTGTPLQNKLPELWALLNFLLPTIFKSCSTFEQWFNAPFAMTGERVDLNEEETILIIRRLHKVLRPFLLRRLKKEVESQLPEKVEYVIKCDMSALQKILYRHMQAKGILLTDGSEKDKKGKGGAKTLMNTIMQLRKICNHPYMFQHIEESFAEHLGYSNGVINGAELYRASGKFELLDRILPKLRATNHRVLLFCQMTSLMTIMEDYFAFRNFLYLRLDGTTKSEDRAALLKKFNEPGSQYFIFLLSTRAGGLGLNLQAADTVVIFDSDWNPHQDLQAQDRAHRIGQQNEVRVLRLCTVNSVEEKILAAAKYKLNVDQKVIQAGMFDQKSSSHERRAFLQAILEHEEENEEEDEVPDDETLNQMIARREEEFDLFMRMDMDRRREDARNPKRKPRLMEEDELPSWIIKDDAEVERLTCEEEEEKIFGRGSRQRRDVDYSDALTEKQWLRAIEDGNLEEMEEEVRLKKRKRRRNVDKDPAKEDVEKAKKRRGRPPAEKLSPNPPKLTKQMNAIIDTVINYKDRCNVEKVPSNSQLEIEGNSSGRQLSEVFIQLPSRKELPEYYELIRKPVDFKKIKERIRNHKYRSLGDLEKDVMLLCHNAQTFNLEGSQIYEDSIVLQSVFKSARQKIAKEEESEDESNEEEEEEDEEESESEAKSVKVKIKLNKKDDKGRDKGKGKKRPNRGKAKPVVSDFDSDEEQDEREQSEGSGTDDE

Cc1ncsc1-c1ccc([C@H](CN2CCOCC2)NC(=O)[C@@H]2C[C@@H](O)CN2C(=O)[C@@H](n2cc([C@H]3CC[C@H](CN4CCC(c5ccc6c(n5)-n5c(nc(=O)c7c(Br)cccc75)C65CCCCC5)CC4)CC3)nn2)C(C)(C)C)cc1 [Compound A52, (2S,4R)-1-((S)-2-(4-((1r,4S)-4-((4-(4′-bromo-5′-oxo-5′H-spiro[cyclohexane-1,7′-pyrido[3′,2′: 4,5]pyrrolo[1,2-a]quinazolin]-10′-yl)piperidin-1-yl)methyl)cyclohexyl)-1H-1,2,3-triazol-1-yl)-3,3-dimethylbutanoyl)-4-hydroxy-N—((R)-1-(4-(4-methylthiazol-5-yl)phenyl)-2-morpholinoethyl)pyrrolidine-2-carboxamide]
Dmax (SMARCA2 [1]): 70 to 90%
DC50 (SMARCA2 [1]): < 100 nM

Cc1ncsc1-c1ccc([C@H](CN2CCOCC2)NC(=O)[C@@H]2C[C@@H](O)CN2C(=O)[C@@H](n2cc([C@H]3CC[C@H](CN4CCC(c5ccc6c(c5)-n5c(nc(=O)c7c(Br)cccc75)C65CCCCC5)CC4)CC3)nn2)C(C)(C)C)cc1 [Compound A69, (2S,4R)-1-((S)-2-(4-((1r,4S)-4-((4-(4′-bromo-5′-oxo-5′H-spiro[cyclohexane-1,7′-indolo[1,2-a]quinazolin]-10′-yl)piperidin-1-yl)methyl)cyclohexyl)-1H-1,2,3-triazol-1-yl)-3,3-dimethylbutanoyl)-4-hydroxy-N—((R)-1-(4-(4-methylthiazol-5-yl)phenyl)-2-morpholinoethyl)pyrrolidine-2-carboxamide]
Dmax (SMARCA2 [1]): > 90%
DC50 (SMARCA2 [1]): < 100 nM

Cc1ncsc1-c1ccc([C@H](CN2CCOCC2)NC(=O)[C@@H]2C[C@@H](O)CN2C(=O)[C@@H](n2cc([C@H]3CC[C@H](CN4CCC(c5ccc6c(n5)-n5c(nc(=O)c7c(Cl)cccc75)C65CCCCC5)CC4)CC3)nn2)C(C)(C)C)cc1 [Compound A77, (2S,4R)-1-((S)-2-(4-((1r,4S)-4-((4-(4′-chloro-5′-oxo-5′H-spiro[cyclohexane-1,7′-pyrido[3′,2′: 4,5]pyrrolo[1,2-a]quinazolin]-10′-yl)piperidin-1-yl)methyl)cyclohexyl)-1H-1,2,3-triazol-1-yl)-3,3-dimethylbutanoyl)-4-hydroxy-N—((R)-1-(4-(4-methylthiazol-5-yl)phenyl)-2-morpholinoethyl)pyrrolidine-2-carboxamide]
Dmax (SMARCA2 [1]): 70 to 90%
DC50 (SMARCA2 [1]): 10 to 100 nM

Cc1ncsc1-c1ccc([C@H](CCN2CC(C)(F)C2)NC(=O)[C@@H]2C[C@@H](O)CN2C(=O)[C@@H](n2cc([C@H]3CC[C@H](CN4CCC(c5ccc6c(c5)-n5c(nc(=O)c7c(Cl)cccc75)C65CCCCC5)CC4)CC3)nn2)C(C)(C)C)cc1 [Compound A79, (2S,4R)-1-((S)-2-(4-((1r,4S)-4-((4-(4′-chloro-5′-oxo-5′H-spiro[cyclohexane-1,7′-indolo[1,2-a]quinazolin]-10′-yl)piperidin-1-yl)methyl)cyclohexyl)-1H-1,2,3-triazol-1-yl)-3,3-dimethylbutanoyl)-N—((S)-3-(3-fluoro-3-methylazetidin-1-yl)-1-(4-(4-methylthiazol-5-yl)phenyl)propyl)-4-hydroxypyrrolidine-2-carboxamide]
Dmax (SMARCA2 [1]): 70 to 90%
DC50 (SMARCA2 [1]): < 10 nM

Cc1ncsc1-c1ccc([C@H](CCN2CC(C)(O)C2)NC(=O)[C@@H]2C[C@@H](O)CN2C(=O)[C@@H](n2cc([C@H]3CC[C@H](CN4CCC(c5ccc6c(c5)-n5c(nc(=O)c7c(Cl)cccc75)C65CCCCC5)CC4)CC3)nn2)C(C)(C)C)cc1 [Compound A80, (2S,4R)-1-((S)-2-(4-((1r,4S)-4-((4-(4′-chloro-5′-oxo-5′H-spiro[cyclohexane-1,7′-indolo[1,2-a]quinazolin]-10′-yl)piperidin-1-yl)methyl)cyclohexyl)-1H-1,2,3-triazol-1-yl)-3,3-dimethylbutanoyl)-4-hydroxy-N—((S)-3-(3-hydroxy-3-methylazetidin-1-yl)-1-(4-(4-methylthiazol-5-yl)phenyl)propyl)pyrrolidine-2-carboxamide]
Dmax (SMARCA2 [1]): 70 to 90%
DC50 (SMARCA2 [1]): 10 to 100 nM

Cc1ncsc1-c1ccc([C@H](CCN2CCOCC2)NC(=O)[C@@H]2C[C@@H](O)CN2C(=O)[C@@H](n2cc([C@H]3CC[C@H](CN4CCC(c5ccc6c(c5)-n5c(nc(=O)c7c(Cl)cccc75)C65CCCCC5)CC4)CC3)nn2)C(C)(C)C)cc1 [Compound A81, (2S,4R)-1-((S)-2-(4-((1r,4S)-4-((4-(4′-chloro-5′-oxo-5′H-spiro[cyclohexane-1,7′-indolo[1,2-a]quinazolin]-10′-yl)piperidin-1-yl)methyl)cyclohexyl)-1H-1,2,3-triazol-1-yl)-3,3-dimethylbutanoyl)-4-hydroxy-N—((S)-1-(4-(4-methylthiazol-5-yl)phenyl)-3-morpholinopropyl)pyrrolidine-2-carboxamide]
Dmax (SMARCA2 [1]): > 90%
DC50 (SMARCA2 [1]): < 10 nM

COCCOCCOCC[C@H](NC(=O)[C@@H]1C[C@@H](O)CN1C(=O)[C@@H](n1cc([C@H]2CC[C@H](CN3CCC(c4ccc5c(c4)-n4c(nc(=O)c6c(Cl)cccc64)C54CCCCC4)CC3)CC2)nn1)C(C)(C)C)c1ccc(-c2scnc2C)cc1 [Compound A82, (2S,4R)-1-((S)-2-(4-((1r,4S)-4-((4-(4′-chloro-5′-oxo-5′H-spiro[cyclohexane-1,7′-indolo[1,2-a]quinazolin]-10′-yl)piperidin-1-yl)methyl)cyclohexyl)-1H-1,2,3-triazol-1-yl)-3,3-dimethylbutanoyl)-4-hydroxy-N—((S)-3-(2-(2-methoxyethoxy)ethoxy)-1-(4-(4-methylthiazol-5-yl)phenyl)propyl)pyrrolidine-2-carboxamide]
Dmax (SMARCA2 [1]): > 90%
DC50 (SMARCA2 [1]): < 10 nM

Cc1ncsc1-c1ccc([C@H](CN2CCOCC2)NC(=O)[C@@H]2C[C@@H](O)CN2C(=O)[C@@H](n2cc(C3CCN(CC4CCN(c5ccc6c(c5)-n5c(nc(=O)c7c(Cl)cccc75)C65CCCCC5)CC4)CC3)nn2)C(C)(C)C)cc1 [Compound A168, (2S,4R)-1-((S)-2-(4-(1-((1-(4′-chloro-5′-oxo-5′H-spiro[cyclohexane-1,7′-indolo[1,2-a]quinazolin]-10′-yl)piperidin-4-yl)methyl)piperidin-4-yl)-1H-1,2,3-triazol-1-yl)-3,3-dimethylbutanoyl)-4-hydroxy-N—((R)-1-(4-(4-methylthiazol-5-yl)phenyl)-2-morpholinoethyl)pyrrolidine-2-carboxamide]
Dmax (SMARCA2 [1]): < 50%
DC50 (SMARCA2 [1]): > 1000 nM

Cc1ncsc1-c1ccc([C@H](CN2CCOCC2)NC(=O)[C@@H]2C[C@@H](O)CN2C(=O)[C@@H](n2cc(C3CCN(CC4CCN(c5ccc6c(c5)-n5c(nc(=O)c7c(Br)cccc75)C65CCCCC5)CC4)CC3)nn2)C(C)(C)C)cc1 [Compound A169, (2S,4R)-1-((S)-2-(4-(1-((1-(4′-bromo-5′-oxo-5′H-spiro[cyclohexane-1,7′-indolo[1,2-a]quinazolin]-10′-yl)piperidin-4-yl)methyl)piperidin-4-yl)-1H-1,2,3-triazol-1-yl)-3,3-dimethylbutanoyl)-4-hydroxy-N—((R)-1-(4-(4-methylthiazol-5-yl)phenyl)-2-morpholinoethyl)pyrrolidine-2-carboxamide]
DC50 (SMARCA2 [1]): > 1000 nM

Cc1ncsc1-c1ccc([C@H](CN2CCOCC2)NC(=O)[C@@H]2C[C@@H](O)CN2C(=O)[C@@H](n2cc(C3CCC(CN4CCC(c5ccc6c(c5)-n5c(nc(=O)c7ccccc75)C65CCCCC5)CC4)CC3)nn2)C(C)(C)C)cc1 (stereo partly drawn) [Compound A170, (2S,4R)-1-((S)-3,3-dimethyl-2-(4-(4-((4-(5′-oxo-5′H-spiro[cyclohexane-1,7′-indolo[1,2-a]quinazolin]-10′-yl)piperidin-1-yl)methyl)cyclohexyl)-1H-1,2,3-triazol-1-yl)butanoyl)-4-hydroxy-N—((R)-1-(4-(4-methylthiazol-5-yl)phenyl)-2-morpholinoethyl)pyrrolidine-2-carboxamide]
Dmax (SMARCA2 [1]): < 50%
DC50 (SMARCA2 [1]): > 1000 nM

Cc1ncsc1-c1ccc([C@H](CN2CCOCC2)NC(=O)[C@@H]2C[C@@H](O)CN2C(=O)[C@@H](n2cc([C@H]3CC[C@H](CN4CCC(c5ccc6c(c5)-n5c(nc(=O)c7c(Br)cccc75)C65CCCCC5)CC4)CC3)nn2)C(C)(C)C)cc1 [Compound B112, (2S,4R)-1-((S)-2-(4-((1r,4S)-4-((4-(4′-bromo-5′-oxo-5′H-spiro[cyclohexane-1,7′-indolo[1,2-a]quinazolin]-10′-yl)piperidin-1-yl)methyl)cyclohexyl)-1H-1,2,3-triazol-1-yl)-3,3-dimethylbutanoyl)-4-hydroxy-N-((R)-1-(4-(4-methylthiazol-5-yl)phenyl)-2-morpholinoethyl)pyrrolidine-2-carboxamide]
DC50 (SMARCA2 [2]; HT1080 CRISPR knock-in cells, read-out: SMARC A2 HT1080 HiBit DC50): < 100 nM
Dmax (SMARCA2 [2]; HT-1080, HT1080 CRISPR knock-in cells, read-out: SMARC A2 HT1080 HiBit Dmax (%)): > 90%
